Experimental data published in PMC8379219 (Nature Communications, 2021).

Tests used:
[1] = tested on: SERT; conditions: cited from earlier work
[2] = target: SERT WT (Homo sapiens, UniProt P31645); assay: [3H]IMI dissociation rate assay (allosteric potency), COS-7 membranes; format: binding; design: expressed in transfected cells; host or cells: COS-7;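 also: radioligand pre-bound 30 min at room temperature to equilibrium, then dissociation followed over 5–70 min, ended by filtration through GF/B filters, at least three independent experiments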
[3] = target: SERT Q332A (Homo sapiens, UniProt P31645, Q332A); assay: [3H]5-HT transport, COS-7 cells, S2 mutant Q332A; format: cell-based
Procedure: (§1) All determinations were performed in triplicate.

[4] = target: SERT F335A (Homo sapiens, UniProt P31645, F335A); assay: [3H]5-HT transport, COS-7 cells, S2 mutant F335A; format: cell-based
Procedure: as §1

## NC(=O)c1ccc2c(c1)CO[C@@]2(CCCN1CCC(c2ccc3ccc(=O)[nH]c3c2)CC1)c1ccc(F)cc1 [Lu AF60097]
[1]; [3H]IMI bound to S1
  Allosteric potency: ~ 30 nM

## CN(C)CCCN1c2ccccc2CCc2ccccc21 [IMI, Imipramine]
[1]; ref Plenge et al 1990 Eur J Pharmacol
  Allosteric properties at SERT: very weak allosteric properties
[2]
  Slope for [3H]IMI dissociation: 0.528 ± 0.012 min⁻¹

## NCCc1c[nH]c2ccc(O)cc12 [5-HT, 5-[1,2-^3H]hydroxytryptamine]
[3]
  5-HT VMAX: 1151 ± 64 pmol/min/10^5 cells
[4]
  5-HT VMAX: 2368 ± 394 pmol/min/10^5 cells
